Source: US20230212549A1, “COMPOUNDS COMPRISING A […] LIGAND AND USE THEREOF” (priority 2021, published 2023)
Numbered stars: 1 amine (or outer) side, 2 acyl side, 3 side chain; on linkers, the order of the positions; unused ones are H or OH. Bridge positions count the residues as written; N and C are the ends. Square brackets hold non-standard residues; d marks the D form. Peptide text beside a SMILES is read from it. * marks the point of attachment. X6 = NCCNCC(CNCCN)C(=O)NCCOCCOCCOCCOCCOCCOCCC(=O)NCCCOCCOCCOCCCN*; X1 = NCCNCC(CNCCN)C(=O)N1CCN(CC(=O)NCCCOCCOCCOCCCN*)CC1; mXylylene = c1cc(C[*:1])cc(C[*:2])c1; Suc = O=C(CCC(=O)[*:2])[*:1]; Nle = CCCC[C@H](N)C(=O)O

How the values were obtained:
[1] = in vivo; settings: swiss nude, mouse, iv
[2] = target: T1, Human recombinant FAP (Homo sapiens, UniProt Q12884); assay: FRET-based FAP protease activity assay; type: biochemical; design: purchased R&D systems 3715-SE
[3] = target: T2, FAP-expressing human WI-38 fibroblasts (Homo sapiens, UniProt Q12884); assay: Competitive FACS binding assay
T2 construct: FAP-expressing human WI-38 fibroblasts (ECACC) were cultured in EMEM; host or cells: WI-38 human fibroblasts
Description: Cells were analyzed in an Attune NxT flow cytometer. […] […].
Cells were analyzed in an Attune NxT flow cytometer. […]

[4] = Radiochemical purity by HPLC of ^99mTc-labeled compounds; type: physicochemical; settings: 99Tc-labeled compounds
Description: 100-500 MBq of ^99mTcO4 (in saline) were mixed with 11 μl of 0.5 M phosphate buffer pH 11.5-12.0 and 1.1 μl of 0.1 M trisodium citrate per 100 μl radionuclide solution. […] The mixture was incubated for 30 min at 25-50′° C. At the end of the incubation time, the mixture was neutralized with 3.0 μl 1 M HCl per 10 μl phosphate buffer and TWEEN-20 was added at a final concentration of 0.100.

[5] = target: T1, Human recombinant FAP; assay: Surface plasmon resonance (Biacore) assay; type: binding
[6] = pIC50 Category (Activity), FRET-peptide substrate, 37° C.
[7] = pIC50 Category (activity), Recombinant human FAP

T1 sequence (Q12884 whole entry): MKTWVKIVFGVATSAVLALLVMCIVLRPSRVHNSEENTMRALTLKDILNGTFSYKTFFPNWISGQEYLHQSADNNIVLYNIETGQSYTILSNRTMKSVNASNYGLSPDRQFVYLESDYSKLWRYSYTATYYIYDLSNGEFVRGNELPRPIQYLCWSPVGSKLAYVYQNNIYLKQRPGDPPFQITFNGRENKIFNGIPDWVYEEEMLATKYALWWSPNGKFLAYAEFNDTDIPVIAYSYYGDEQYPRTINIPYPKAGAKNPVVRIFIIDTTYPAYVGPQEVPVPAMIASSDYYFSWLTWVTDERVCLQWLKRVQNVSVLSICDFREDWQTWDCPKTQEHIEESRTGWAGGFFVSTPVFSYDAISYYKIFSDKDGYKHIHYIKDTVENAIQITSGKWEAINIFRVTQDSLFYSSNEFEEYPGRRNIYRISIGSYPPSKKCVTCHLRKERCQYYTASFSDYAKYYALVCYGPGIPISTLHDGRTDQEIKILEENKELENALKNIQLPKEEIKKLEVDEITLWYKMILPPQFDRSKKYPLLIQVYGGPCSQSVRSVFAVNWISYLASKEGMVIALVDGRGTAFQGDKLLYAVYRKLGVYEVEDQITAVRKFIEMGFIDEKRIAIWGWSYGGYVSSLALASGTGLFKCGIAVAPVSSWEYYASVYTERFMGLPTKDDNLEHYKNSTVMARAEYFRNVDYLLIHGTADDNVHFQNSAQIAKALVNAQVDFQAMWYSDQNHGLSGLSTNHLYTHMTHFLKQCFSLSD
T2 sequence (Q12884 whole entry): as above

| SMILES | tissue uptake at 1 h ([1]; blood pool surrogate (BPS)) [%ID/g] | tissue uptake at 3 h ([1]; blood pool surrogate (BPS)) [%ID/g] | tissue uptake at 6 h ([1]; blood pool surrogate (BPS)) [%ID/g] | tissue uptake at 1 h ([1]; kidneys) [%ID/g] | tissue uptake at 3 h ([1]; kidneys) [%ID/g] | tissue uptake at 6 h ([1]; kidneys) [%ID/g] | tissue uptake at 1 h ([1]; tumor) [%ID/g] | tissue uptake at 3 h ([1]; tumor) [%ID/g] | tissue uptake at 6 h ([1]; tumor) [%ID/g] | IC50 [2, 6] [nM] | IC50 [3] [nM] | HPLC Area % at end of synthesis [4] [%] | HPLC Area % appr. 4 h post end of synthesis ([4]; (3 h)) [%] | IC50 [2, 7] [nM] | Kd [5] [nM] | HPLC Area % appr. 4 h post end of synthesis [4] [%] |
| --- | --- | --- | --- | --- | --- | --- | --- | --- | --- | --- | --- | --- | --- | --- | --- | --- |
| CCCCNC(=O)N[C@H]1CSCc2cc(cc(CN3CCN(C(=O)C(CNCCN)CNCCN)CC3)c2)CSC[C@@H](C(=O)O)NC(=O)[C@H](Cc2ccccc2)NC(=O)[C@H](CCC(N)=O)NC(=O)[C@H]([C@@H](C)O)NC(=O)[C@@H]2CCCN2C(=O)[C@@H]2CCCN2C1=O [3BP-4533, nBu-CAyl-[Cys(tMeBn(N4Ac-PP))-Pro-Pro-Thr-Gln-Phe-Cys]-OH] | 1.72 | 1.46 | 0.86 | 6.04 | 4.43 | 3.04 | 5.45 | 6.27 | 6.75 | < 10 | < 10 | 99.3 | 98.2 | – | – | – |
| CCCCNC(=O)N[C@H]1CSCc2cc(CSCCNC(=O)C(CNCCN)CNCCN)cc(c2)CSC[C@@H](C(=O)O)NC(=O)[C@H](Cc2ccccc2)NC(=O)[C@H](CCC(N)=O)NC(=O)[C@H]([C@@H](C)O)NC(=O)[C@@H]2CCCN2C(=O)[C@@H]2CCCN2C1=O [3BP-4534, nBu-CAyl-[Cys(tMeBn(N4Ac-AET))-Pro-Pro-Thr-Gln-Phe-Cys]-OH] | 1.7 | 1.19 | 0.78 | 2.06 | 1.4 | 1.09 | 5.67 | 6.85 | 7.68 | < 10 | < 10 | 98.6 | 97.5 | – | – | – |
| CCCC[C@H](NC(=O)CCC(=O)NCCCOCCOCCOCCCNC(=O)C(CNCCN)CNCCN)C(=O)N[C@H]1CSCc2cncc(c2)CSCC(C(=O)O)NC(=O)[C@H](Cc2ccccc2)NC(=O)[C@H](CCC(N)=O)NC(=O)[C@H]([C@@H](C)O)NC(=O)[C@@H]2CCCN2C(=O)[C@@H]2CCCN2C1=O (stereo partly drawn) [3BP-4549, N4Ac-Ttds-Nle-[Cys(3Lut)-Pro-Pro-Thr-Gln-Phe-Cys]-OH] | 0.18 | 0.03 | 0.01 | 4.22 | 1.82 | 0.58 | 6.04 | 4.25 | 1.68 | – | 10 to 79.4 | 99.3 | 97.6 | < 10 | 10 to 79.4 | – |
| CCCC[C@H](NC(=O)CCC(=O)NCCCOCCOCCOCCCNC(=O)CCOCCOCCOCCOCCOCCOCCNC(=O)C(CNCCN)CNCCN)C(=O)N[C@H]1CSCc2cccc(c2)CSCC(C(=O)O)NC(=O)[C@H](Cc2ccccc2)NC(=O)[C@H](CCC(N)=O)NC(=O)[C@H]([C@@H](C)O)NC(=O)[C@@H]2CCCN2C(=O)[C@@H]2CCCN2C1=O (stereo partly drawn) [3BP-4552, N4Ac-PEG6-Ttds-Nle-[Cys(3MeBn)-Pro-Pro-Thr-Gln-Phe-Cys]-OH] | 0.52 | 0.14 | 0.07 | 3.17 | 3.4 | 1.34 | 7.92 | 6.86 | 5.21 | – | 10 to 79.4 | 88.3 | – | 10 to 79.4 | – | – |
| CCCC[C@H](NC(=O)CCC(=O)NCCCOCCOCCOCCCNC(=O)CN1CCN(C(=O)C(CNCCN)CNCCN)CC1)C(=O)N[C@H]1CSCc2cncc(c2)CSCC(C(=O)O)NC(=O)[C@H](Cc2ccccc2)NC(=O)[C@H](CCC(N)=O)NC(=O)[C@H]([C@@H](C)O)NC(=O)[C@@H]2CCCN2C(=O)[C@@H]2CCCN2C1=O (stereo partly drawn) [3BP-4774, N4Ac-PPAc-Ttds-Nle-[Cys(3Lut)-Pro-Pro-Thr-Gln-Phe-Cys]-OH] | 0.08 | 0.06 | 0.03 | 1.87 | 0.85 | 0.48 | 6.14 | 3.7 | 1.74 | – | 10 to 79.4 | 88.8 | – | 10 to 79.4 | – | 86.1 |
| CCCC[C@H](NC(=O)CCC(=O)NCCCOCCOCCOCCCNC(=O)CCOCCOCCOCCOCCOCCOCCNC(=O)C(CNCCN)CNCCN)C(=O)N[C@H]1CSCc2cccc(c2)CSC[C@@H](C(=O)O)NC(=O)[C@H](Cc2ccccc2)NC(=O)[C@H](CCC(=O)O)NC(=O)[C@H]([C@@H](C)O)NC(=O)[C@@H]2CCCN2C(=O)[C@@H]2CCCN2C1=O [3BP-4780, N4Ac-PEG6-Ttds-Nle-[Cys(3MeBn)-Pro-Pro-Thr-Glu-Phe-Cys]-OH] ({X6-Suc}-[Nle]CPPTEFC-OH; linker 2-8 via mXylylene) | 0.81 | 0.61 | 0.43 | 8.11 | 6.14 | 4.36 | 6.71 | 7.01 | 7.92 | – | 10 to 79.4 | 95.0 | – | < 10 | – | 92.3 |
| CCCC[C@H](NC(=O)CCC(=O)NCCCOCCOCCOCCCNC(=O)CN1CCN(C(=O)C(CNCCN)CNCCN)CC1)C(=O)N[C@H]1CSCc2cccc(c2)CSC[C@@H](C(=O)O)NC(=O)[C@H](Cc2ccccc2)NC(=O)[C@H](CCC(=O)O)NC(=O)[C@H]([C@@H](C)O)NC(=O)[C@@H]2CCCN2C(=O)[C@@H]2CCCN2C1=O [3BP-4782, N4Ac-PPAc-Ttds-Nle-[Cys(3MeBn)-Pro-Pro-Thr-Glu-Phe-Cys]-OH] ({X1-Suc}-[Nle]CPPTEFC-OH; linker 2-8 via mXylylene) | 0.69 | 0.47 | 0.36 | 7.28 | 5.78 | 4.24 | 6.2 | 6.77 | 7.17 | – | 10 to 79.4 | 97.1 | – | 10 to 79.4 | – | 95.8 |
| CCCC[C@H](NC(=O)CCC(=O)NCCCOCCOCCOCCCNC(=O)CN1CCN(C(=O)C(CNCCN)CNCCN)CC1)C(=O)N[C@H]1CSCc2cccc(c2)CSC[C@@H](C(=O)N[C@@H](CC(=O)O)C(=O)O)NC(=O)[C@H](Cc2ccccc2)NC(=O)[C@H](CCC(=O)O)NC(=O)[C@H]([C@@H](C)O)NC(=O)[C@@H]2CCCN2C(=O)[C@@H]2CCCN2C1=O [3BP-4785, N4Ac-PPAc-Ttds-Nle-[Cys(3MeBn)-Pro-Pro-Thr-Glu-Phe-Cys]-Asp-OH] ({X1-Suc}-[Nle]CPPTEFCD-OH; linker 2-8 via mXylylene) | 0.92 | 0.64 | 0.48 | 3.47 | 2.14 | 1.63 | 4.2 | 4.14 | 4.32 | – | < 10 | 95.3 | – | < 10 | – | 93.8 |
